Experimental data taken from US8541449B2, “Substituted isoquinolines and isoquinolinones as Rho kinase inhibitors” (Sanofi, priority 2008, dated 2013).

Columns and labels:
[1] = biological target: T1, human recombinant ROCK II (Homo sapiens, UniProt O75116); assay: Determination of Rho kinase inhibition (Caliper peptide phosphorylation assay); format: biochemical; settings: 60 min at 32° C., negative decadal logarithm of the IC50
T1 construct: N-terminal His6-tagged recombinant human ROCK-II residues 11-552; His6 (N); purchased Millipore GmbH, Schwalbach, Germany
T1 sequence (O75116 11-552): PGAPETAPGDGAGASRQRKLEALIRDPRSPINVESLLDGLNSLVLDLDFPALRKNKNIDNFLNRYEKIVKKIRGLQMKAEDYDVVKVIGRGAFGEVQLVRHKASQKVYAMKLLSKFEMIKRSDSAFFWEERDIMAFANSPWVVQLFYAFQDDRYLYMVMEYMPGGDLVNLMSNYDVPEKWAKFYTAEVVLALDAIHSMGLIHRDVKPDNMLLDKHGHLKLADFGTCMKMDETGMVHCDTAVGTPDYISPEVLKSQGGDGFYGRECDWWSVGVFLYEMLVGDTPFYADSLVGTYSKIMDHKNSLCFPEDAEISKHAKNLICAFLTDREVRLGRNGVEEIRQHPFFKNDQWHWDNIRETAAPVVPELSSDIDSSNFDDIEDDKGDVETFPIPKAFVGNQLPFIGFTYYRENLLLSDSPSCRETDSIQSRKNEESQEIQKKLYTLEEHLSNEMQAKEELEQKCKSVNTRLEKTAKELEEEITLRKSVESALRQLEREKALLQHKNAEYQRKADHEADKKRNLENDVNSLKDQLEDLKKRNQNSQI
Outline: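 His6-tagged human ROCK II (residues 11-552) phosphorylated a fluorescein-labelled peptide for 60 min at 32° C in Tris-HCl pH 7.4 with MgCl2, DTT and BSA, using 3 μM peptide and 120 μM ATP as diluted stocks. EDTA-stopped; phosphopeptide separated and detected by Caliper mobility shift; IC50 determined.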

recombinant human PKA = biological target: T2, recombinant human PKA (Homo sapiens, UniProt P17612); assay: Determination of Protein Kinase A inhibition (Caliper peptide phosphorylation assay); format: biochemical; settings: recombinant human PKA versus ROCK II
T2 construct: Active recombinant human PKA (residues 1-351, N-terminal His-tag); His-tag (N); purchased Invitrogen, Karlsruhe, Germany
Outline: (§1)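 Full-length His-tagged PKG1-beta (150 ng/ml working) or His-tagged PKA residues 1-351 (30 ng/ml working) was mixed with compound in pH 7.4 Tris/MgCl2/DTT buffer. Fluorescein-peptide substrate and ATP (3 μM and 120 μM working) were then added for 60 min at 32 °C before an EDTA stop. Phosphopeptide was separated electrophoretically on a Caliper instrument to derive IC50.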

[2] = biological target: T3, recombinant human PKG1-beta (Homo sapiens, UniProt Q13976); assay: Determination of Protein Kinase G inhibition (Caliper peptide phosphorylation assay); format: biochemical; settings: recombinant human PKG1-beta versus ROCK II
T3 construct: Active recombinant human PKG1-beta (full-length, with N-terminal His-tag); His-tag (N); purchased Millipore GmbH, Schwalbach, Germany
T3 sequence (Q13976 1-686 isoform Q13976-2): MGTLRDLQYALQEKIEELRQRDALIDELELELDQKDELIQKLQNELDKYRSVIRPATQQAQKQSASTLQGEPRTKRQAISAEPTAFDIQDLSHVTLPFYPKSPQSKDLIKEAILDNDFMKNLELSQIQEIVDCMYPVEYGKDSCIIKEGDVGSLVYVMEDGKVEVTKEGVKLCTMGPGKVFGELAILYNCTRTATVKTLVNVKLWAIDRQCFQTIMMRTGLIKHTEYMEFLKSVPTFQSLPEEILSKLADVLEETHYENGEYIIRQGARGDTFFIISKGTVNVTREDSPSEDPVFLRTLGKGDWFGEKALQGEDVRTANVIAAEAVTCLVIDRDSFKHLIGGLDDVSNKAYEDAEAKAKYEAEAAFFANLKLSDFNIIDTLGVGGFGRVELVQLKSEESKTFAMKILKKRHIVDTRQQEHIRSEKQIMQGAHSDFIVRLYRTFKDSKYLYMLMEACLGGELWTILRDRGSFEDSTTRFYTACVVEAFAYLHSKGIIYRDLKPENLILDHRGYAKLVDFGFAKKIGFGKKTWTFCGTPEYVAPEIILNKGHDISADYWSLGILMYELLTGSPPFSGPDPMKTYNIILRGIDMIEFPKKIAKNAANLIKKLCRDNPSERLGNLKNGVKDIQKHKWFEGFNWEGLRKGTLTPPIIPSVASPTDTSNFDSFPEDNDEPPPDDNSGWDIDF
Outline: as §1

Protein Kinase G = settings: Rho kinase versus Protein Kinase G; cited from earlier work

Compound	pIC50 [1]	Selectivity against PKA (recombinant human PKA)	Selectivity against PKG [2]	selectivity against Protein Kinase G (Protein Kinase G) [fold]
CCC(N)[C@]1(c2ccccc2OC)CC[C@H](Oc2cc3cc[nH]c(=O)c3cc2Cl)CC1 (stereo partly drawn) [Example 69, cis-6-[4-(1-Amino-propyl)-4-(2-methoxy-phenyl)-cyclohexyloxy]-7-chloro-2H isoquinolin-1-one]	+++++++ (8.0≦pIC50)	>1000	>300	–
CCC(N)[C@]1(c2ccc(OC(F)(F)F)cc2)CC[C@H](Oc2cc3cc[nH]c(=O)c3cc2Cl)CC1 (stereo partly drawn) [Example 70, cis-6-[4-(1-Amino-propyl)-4-(4-trifluoro-methoxy-phenyl)-cyclohexyloxy]-7-chloro-2H-isoquinolin-1-one]	+++++++ (8.0≦pIC50)	>1000	>1000	–
CC(C)(N)[C@]1(c2ccc(F)cc2)CC[C@H](Oc2cc3cc[nH]c(=O)c3cc2Cl)CC1 [Example 77, cis-6-[4-(1-Amino-1-methyl-ethyl)-4-(4-fluoro-phenyl)-cyclohexyloxy]-7-chloro-2H-isoquinolin-1-one]	+++++++ (8.0≦pIC50)	>1000	>300	–
NC(C1CC1)[C@]1(c2ccc(F)cc2)CC[C@H](Oc2cc3cc[nH]c(=O)c3cc2Cl)CC1 (stereo partly drawn) [Example 82, cis-6-[4-(Amino-cyclopropyl-methyl)-4-(4-fluoro-phenyl)-cyclohexyloxy]-7-chloro-2H-isoquinolin-1-one]	+++++++ (8.0≦pIC50)	>1000	>1000	–
CCC(N)[C@]1(c2cccc(C(F)(F)F)c2)CC[C@H](Oc2cc3cc[nH]c(=O)c3cc2Cl)CC1 (stereo partly drawn) [Example 83, cis-6-[4-(1-Amino-propyl)-4-(3-trifluoromethyl-phenyl)-cyclohexyloxy]-7-chloro-2H-isoquinolin-1-one]	+++++ (6.0≦pIC50<7.0)	>100	>10	–
CCC(N)[C@]1(c2cccc(OC(F)(F)F)c2)CC[C@H](Oc2cc3cc[nH]c(=O)c3cc2Cl)CC1 (stereo partly drawn) [Example 84, cis-6-[4-(1-Amino-propyl)-4-(3-trifluoromethoxy-phenyl)-cyclohexyloxy]-7-chloro-2H-iso quinolin-1-one]	+++++ (6.0≦pIC50<7.0)	>100	>10	–
CCC(N)[C@]1(c2cccc(OC(F)(F)F)c2)CC[C@H](Oc2cc3cc[nH]c(=O)c3cc2C)CC1 (stereo partly drawn) [Example 85, cis-6-[4-(1-Amino-propyl)-4-(3-trifluoro-methoxy-phenyl)-cyclo-hexyloxy]-7-methyl-2H-iso quinolin-1-one]	+++++ (6.0≦pIC50<7.0)	>100	>10	–
CCC(N)[C@]1(c2cccc(C(F)(F)F)c2)CC[C@H](Oc2cc3cc[nH]c(=O)c3cc2C)CC1 (stereo partly drawn) [Example 86, cis-6-[4-(1-Amino-propyl)-4-(3-trifluoromethyl-phenyl)-cyclohexyloxy]-7-methyl-2H-iso quinolin-1-one]	+++++ (6.0≦pIC50<7.0)	>10	>10	–
CCC(N)[C@]1(c2cccc(S(C)(=O)=O)c2)CC[C@H](Oc2cc3cc[nH]c(=O)c3cc2Cl)CC1 (stereo partly drawn) [Example 99, cis-6-[4-(1-Amino-propyl)-4-(3-methanesulfonyl-phenyl)-cyclohexyloxy]-7-chloro-2H-isoquinolin-1-one]	+++++++ (8.0≦pIC50)	>1000	>100	–
C[C@@H](N)[C@H]1CC[C@H](C(=O)Nc2ccncc2)CC1 [Example Y-27632]	–	–	–	20
cis-6-[4-(1- Amino-propyl)-4- (3-bromo- phenyl)-cyclo hexyloxy]-7- chloro-2H-iso quinolin-1-one [Example 29]	+++++++ (8.0≦pIC50)	>1000	>1000	–

Second part, led by results:

pIC50 [1]	Selectivity against PKA (recombinant human PKA)	Selectivity against PKG [2]	Compound	selectivity against Protein Kinase G (Protein Kinase G) [fold]
++++++ (7.0≦pIC50<8.0)	>1000	>100	CCC(N)[C@]1(c2ccccc2)CC[C@H](Oc2cc3cc[nH]c(=O)c3cc2F)CC1 (stereo partly drawn) [Example 87, cis-6-[4-(1-Amino-propyl)-4-phenyl-cyclohexyloxy]-7-fluoro-2H-iso quinolin-1-one]	–
+++++ (6.0≦pIC50<7.0)	>10	>10	CCC(N)[C@]1(c2ccccc2)CC[C@H](Oc2c(F)cc3c(=O)[nH]ccc3c2C)CC1 (stereo partly drawn) [Example 88, cis-6-[4-(1-Amino-propyl)-4-phenyl-cyclohexyloxy]-7-fluoro-5-methyl-2H-isoquinolin-1-one]	–
+++++++ (8.0≦pIC50)	>1000	>300	CCC(N)[C@]1(c2ccc(C#N)cc2)CC[C@H](Oc2cc3cc[nH]c(=O)c3cc2Cl)CC1 (stereo partly drawn) [Example 97, cis-4-[1-(1-Amino-propyl)-4-(7-chloro-1-oxo-1,2-dihydro-isoquinolin-6-yloxy)-cyclohexyl]benzonitrile]	–
+++++++ (8.0≦pIC50)	>1000	>1000	CCC(N)[C@@]1(c2ccccc2)C[C@@H]2C[C@H]1CC2Oc1cc2cc[nH]c(=O)c2cc1Cl (stereo partly drawn) [Example 100, 6-[(1S,4S,5S)-5-(1-Amino-propyl)-5-phenyl-bicyclo[2.2.1]hept-2-yloxy]-7-chloro-2H-isoquinolin-1-one]	–
++++++ (7.0≦pIC50<8.0)	>300	>100	CC(N)C[C@]1(c2ccc(F)cc2)CC[C@H](Oc2cc3cc[nH]c(=O)c3cc2Cl)CC1 (stereo partly drawn) [Example 109, cis-6-[4-(2-Amino-propyl)-4-(4-fluoro-phenyl)-cyclohexyloxy]-7-chloro-2H-isoquinolin-1-one]	–
++++++ (7.0≦pIC50<8.0)	>300	>100	CCC(N)C[C@]1(c2ccc(F)cc2)CC[C@H](Oc2cc3cc[nH]c(=O)c3cc2Cl)CC1 (stereo partly drawn) [Example 110, cis-6-[4-(2-Amino-butyl)-4-(4-fluoro-phenyl)-cyclohexyloxy]-7-chloro-2H-isoquinolin-1-one]	–
+++++++ (8.0≦pIC50)	>1000	>1000	NC(CF)[C@]1(c2ccc(F)cc2)CC[C@H](Oc2cc3cc[nH]c(=O)c3cc2Cl)CC1 (stereo partly drawn) [Example 114, cis-6-[4-(1-Amino-2-fluoro-ethyl)-4-(4-fluoro-phenyl)-cyclohexyloxy]-7-chloro-2H-isoquinolin-1-one]	–
+++++ (6.0≦pIC50<7.0)	>10	>10	CCC(N)C1(c2ccc(F)cc2)CC(Oc2cc3cc[nH]c(=O)c3cc2Cl)C1 (stereo not shown) [Example 125, 6-[3-(1-Amino-propyl)-3-(4-fluoro-phenyl)-cyclobutyloxy]-7-chloro-2H-isoquinolin-1-one]	–
+++++ (6.0≦pIC50<7.0)	>10	>10	NC(c1ccccc1)C1CCC(Oc2cc3cc[nH]c(=O)c3cc2Cl)CC1 (stereo not shown) [Example 128, 6-[4-(amino-phenyl-methyl)-cyclohexyloxy]-7-chloro-2H-isoquinolin-1-one]	–
